From patent publication US20040014676A1, “SRC kinase inhibitors useful for treating osteoporosis” (priority 2001, published 2004)

Target: T1, Src kinase (Homo sapiens, UniProt P12931)
T1 construct: purchased Upstate Bioteolnology (sic; Upstate Biotechnology); later HMR stock 27597-019E1 #14-117
Assay: Phosphorylation assay of Src kinase inhibitors (radiometric, 96 well filter plate)
Assay type: biochemical
Conditions: duplicates, tested in the range of 400-0.098 µM; 10 µM peptide substrate (FIYGAFKKKKNH2), 5 µM unlabeled ATP, room temperature 30 min; read-out: IC50
Procedure, shortened: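 Radiometric filter-plate assay: Src kinase (1:100 dilution) was incubated with 10 μM peptide FIYGAFKKK-NH2, 5 μM unlabeled ATP and radiolabeled ATP for 30 min at room temperature. Reactions were stopped with 150 mM H3PO4, the peptide was captured on phosphocellulose and scintillation counted. Ki values were determined for some compounds.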

T1 sequence (P12931 whole entry): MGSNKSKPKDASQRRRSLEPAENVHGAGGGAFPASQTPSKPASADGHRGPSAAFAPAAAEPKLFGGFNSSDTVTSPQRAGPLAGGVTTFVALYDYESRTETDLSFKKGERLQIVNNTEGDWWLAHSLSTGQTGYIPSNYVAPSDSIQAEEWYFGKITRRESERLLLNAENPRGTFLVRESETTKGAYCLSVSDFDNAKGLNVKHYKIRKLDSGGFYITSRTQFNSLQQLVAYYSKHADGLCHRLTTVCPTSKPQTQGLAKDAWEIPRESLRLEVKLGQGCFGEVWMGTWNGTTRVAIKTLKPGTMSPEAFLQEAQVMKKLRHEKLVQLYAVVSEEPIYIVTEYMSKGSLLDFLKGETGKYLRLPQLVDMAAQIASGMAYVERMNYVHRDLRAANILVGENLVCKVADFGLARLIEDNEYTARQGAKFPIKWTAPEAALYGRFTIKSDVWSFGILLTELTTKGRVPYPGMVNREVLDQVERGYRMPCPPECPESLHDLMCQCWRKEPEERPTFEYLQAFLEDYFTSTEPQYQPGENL

| Compound | IC50 [µM] |
| --- | --- |
| CNC(=O)[C@@H](Cc1ccc(C(=O)OC)cc1)C(=O)NCCCCOc1cc2ccccc2cc1C(=O)NCC(N)=O [Example 147, 3-[[4-[N-[1-OXO-2-(N-METHYLAMINO- CARBONYL)-3-[(4-(METHOXY- CARBONYL)PHENYL]]PROPYL]- AMINO]BUTOXY]-NAPHTHALENE-2- (N-ACETAMIDO)CARBOXAMIDE] | 18 |
| CNC(=O)[C@@H](Cc1cccc(C(=O)OC)c1)C(=O)NCCCCOc1cc2ccccc2cc1C(=O)NCC(N)=O [Example 148, 3-[[4-[N-[1-OXO-2-(N-METHYLAMINO- CARBONYL)-3-[(3-(METHOXY- CARBONYL)PHENYL]]PROPYL]- AMINO]BUTOXY]-NAPHTHALENE-2- (N-ACETAMIDO)CARBOXAMIDE] | 203 |
| N#C/C(=C\c1ccc(O)cc1)C(=O)NCCCCOc1cc2ccccc2cc1C(=O)NCC(N)=O [Example 149, 3-[[4-[N-[1-OXO-2-(CYANO)-3-(4- HYDROXYPHENYL)]PROPEN-2-YL]- AMINO] BUTOXY]-NAPHTHALENE-2- [N-ACETAMIDO]CARBOXAMIDE] | 27 |
| NC(=O)CNC(=O)c1cc2ccccc2cc1OCCCCNC(=O)C(=C/c1ccc(O)cc1)/C(N)=N/O [Example 150, 3-[[4-[N-[1-OXO-2-[(HYDROXYIMINO)- (AMINO)METHYL]-3-(4-HYDROXY- PHENYL)]]PROP-2-ENYL]AMINO]- BUTOXY]-NAPHTHALENE-2-(N- ACETAMIDO)CARBOXAMIDE] | 16 |
| CN(CCCCOc1cc2ccccc2cc1C(=O)NCC(N)=O)C(=O)C(N)Cc1csc2ccccc12 (stereo not drawn) [Example 153, 3-[[[4-[3-(BENZOTHIOPHEN-3-YL)-2- AMINO-1-OXO]PROPYL](N-METHYL)- AMINO]BUTOXY]-NAPHTHALENE-2- (N-ACETAMIDO)CARBOXAMIDE] | 0.33 |
| CCNC(=O)CNC(=O)c1cc2ccccc2cc1OCCCCN(C)C(=O)C(N)Cc1csc2ccccc12 (stereo not drawn) [Example 154, 3-[[[4-[3-(BENZOTHIOPHEN-3-YL)-2- AMINO-1-OXO]PROPYL](N-METHYL)- AMINO]BUTOXY]-NAPHTHALENE-2- [(N-(N-ETHYL)ACETAMIDO]- CARBOXAMIDE] | 4 |
